Structures are written as SMILES. Where only a bound is given, the exact number is not on record here.

Experiment [1] deals with T1, membrane-bound CD73 (membrane preparation of MDA-MB-231 cells) (Homo sapiens, UniProt P21589).
T1 sequence (P21589 27-549): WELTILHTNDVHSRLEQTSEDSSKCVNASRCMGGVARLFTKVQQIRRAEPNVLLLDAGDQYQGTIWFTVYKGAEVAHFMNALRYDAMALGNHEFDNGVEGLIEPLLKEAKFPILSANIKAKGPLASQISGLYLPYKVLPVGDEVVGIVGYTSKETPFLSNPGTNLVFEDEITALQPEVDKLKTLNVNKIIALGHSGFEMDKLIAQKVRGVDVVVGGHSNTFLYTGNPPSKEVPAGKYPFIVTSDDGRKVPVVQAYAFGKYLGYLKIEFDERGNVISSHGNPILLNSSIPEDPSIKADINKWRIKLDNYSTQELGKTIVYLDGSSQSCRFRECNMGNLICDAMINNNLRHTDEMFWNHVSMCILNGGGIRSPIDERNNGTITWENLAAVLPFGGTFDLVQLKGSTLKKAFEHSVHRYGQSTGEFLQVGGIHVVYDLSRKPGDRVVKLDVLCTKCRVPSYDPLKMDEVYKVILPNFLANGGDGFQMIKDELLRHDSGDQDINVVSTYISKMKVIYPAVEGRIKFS
The experiment in a line: Radiometric CD73 inhibition assay, membrane preparations of MDA-MB-231 cells.
Protocol: After the enzymatic reaction, the substrate was separated from its product [2,8-^3H]adenosine by precipitation with lanthanum chloride followed by filtration through glass fiber filters (34). For compounds that inhibited CD73 activity by more than 50% at an initial screening concentration of 1 μM, full concentration-response curves were determined in at least three separate experiments performed in duplicates using 10 different concentrations of inhibitor. Ki values were calculated from the obtained IC50 values using the Cheng-Prusoff equation (6,7). […]
The assay was performed essentially as previously described.^D Stock solutions (10 mM) of the compounds were prepared in demineralized water and further dilutions were performed in assay reaction buffer (25 mM Tris, 140 mM sodium chloride, 25 mM sodium dihydrogen phosphate, pH 7.4). […] After washing each reaction vial three times with 400 μl of cold (4° C.) demineralized water, 5 ml of the scintillation cocktail (ULTIMA Gold XR, PerkinElmer, MA, USA) was added and radioactivity was measured by scintillation counting (TRICARB 2900 TR, Packard/PerkinElmer; counting efficacy: 49-52%). Two controls were included and measured as duplicates. […]

The target of experiment [2] is T2, recombinant soluble rat CD73 (Rattus norvegicus, UniProt P21588).
T2 sequence (P21588 29-551 limits assumed): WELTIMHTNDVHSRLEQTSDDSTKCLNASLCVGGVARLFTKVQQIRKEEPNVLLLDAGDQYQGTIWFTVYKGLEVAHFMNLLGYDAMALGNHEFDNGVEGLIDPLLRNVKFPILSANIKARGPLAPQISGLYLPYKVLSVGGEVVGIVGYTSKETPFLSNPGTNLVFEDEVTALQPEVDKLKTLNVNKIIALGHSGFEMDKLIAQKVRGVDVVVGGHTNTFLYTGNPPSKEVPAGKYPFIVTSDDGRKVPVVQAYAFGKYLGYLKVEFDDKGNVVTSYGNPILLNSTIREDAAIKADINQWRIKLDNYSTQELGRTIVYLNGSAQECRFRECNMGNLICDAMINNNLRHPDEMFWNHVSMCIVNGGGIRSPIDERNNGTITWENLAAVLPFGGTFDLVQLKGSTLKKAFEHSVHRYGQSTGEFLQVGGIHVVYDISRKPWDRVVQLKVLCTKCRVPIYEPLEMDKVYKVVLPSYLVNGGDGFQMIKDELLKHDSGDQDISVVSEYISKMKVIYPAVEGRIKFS
As to the kind of experiment: Radiometric rat ecto-5′-nucleotidase (CD73) assay with [3H]AMP.
Protocol: After the enzymatic reaction, the substrate was separated from its product [2,8-^3H]adenosine by precipitation with lanthanum chloride followed by filtration through glass fiber filters (34). […] Ki values were calculated from the obtained IC50 values using the Cheng-Prusoff equation (6,7).
The assay was performed as previously described (41) using recombinant rat CD73 expressed in Sf9 insect cells (33). […] The mixture was incubated for 25 min at 37° C. The reaction was stopped by adding 500 μL of ice-cooled precipitation buffer containing 100 mM aqueous lanthanum chloride and 100 mM aqueous sodium acetate solution (pH 4.0). After 30 min, the precipitation was filtered through GF/B glass fiber filters (M-48, Brandel, Gaithersburg, Md., USA). After washing three times, 4 mL of the scintillation cocktail ULTIMA Gold XR was added and then quantified by scintillation counting (TRICARB 2900 TR, Packard/PerkinElmer). Three separate inhibition assays were performed in triplicate, concentration-response curves were fitted, and Ki values were calculated.
The assay was performed essentially as previously described.^D Stock solutions (10 mM) of the compounds were prepared in demineralized water and further dilutions were performed in assay reaction buffer (25 mM Tris, 140 mM sodium chloride, 25 mM sodium dihydrogen phosphate, pH 7.4). 10 μL of the inhibitor solution were added to 70 μL of assay reaction buffer. […] The enzymatic reaction was performed for 25 min at 37° C. in a shaking water bath. […] After the precipitation was completed (after at least 30 min on ice), the mixture was separated by filtration through GF/B glass fiber filters using a cell harvester (M-48, Brandel, Gaitherburg, Md., USA). After washing each reaction vial three times with 400 μl of cold (4° C.) demineralized water, 5 ml of the scintillation cocktail (ULTIMA Gold XR, PerkinElmer, MA, USA) was added and radioactivity was measured by scintillation counting (TRICARB 2900 TR, Packard/PerkinElmer; counting efficacy: 49-52%). Two controls were included and measured as duplicates. One reaction was performed without the inhibitor resulting in 100% enzyme activity (positive control) and one was incubated without the inhibitor and the enzyme and served as background control. The resulting data were subtracted from the background and were normalized with to the positive control. The results were plotted, and concentration-inhibition curves were fitted with GraphPad Prism 5 (GraphPad Software, La Jolla, USA).
After 30 min, the precipitation was filtered through GF/B glass fiber filters (M-48, Brandel, Gaithersburg, Md., USA). After washing three times, 4 mL of the scintillation cocktail ULTIMA Gold XR was added and then quantified by scintillation counting (TRICARB 2900 TR, Packard/PerkinElmer). Three separate inhibition assays were performed in triplicate, concentration-response curves were fitted, and K, values were calculated.

For experiment [3], the system named is recombinant soluble human CD73. The experiment in a line: Radiometric CD73 inhibition assay, recombinant soluble human CD73. The class given is biochemical. The conditions noted are these: human vs rat CD73 Ki, Table 5. The method, then:
The cDNA for the soluble human CD73 (Genbank accession no. NM_002526) was obtained from Prof. Dr. Norbert Sträter (University of Leipzig, Germany) (3). […] Sf9 insect cells were grown in Insect-[…] media (#: BE12-[…], Lonza, Switzerland) with 10 mg/l gentamicin and split at a ratio of 1:3 every fourth day. For transfection, cells were seeded into cell culture flasks (25 cm^2) at 60-70% confluence. 100 μl of cell medium and 1 μl of the vector DNA (1000 ng/μ1) were mixed with 2.5 μl of baculovirus genomic ProEasyTM vector DNA (AB vector, CA, USA) and combined with premixed 100 μl of cell medium and 8 μl of CellfectinTM II Reagent (Thermo Fisher Scientific, MA, USA). […] The cells were incubated for 30 min at rt, and for further 4 days at 27° C. Cells from the transfection procedure were detached from the bottom of the flasks and centrifuged for 5 min at 2000 g. 1.5 ml of the supernatant (viral stock) was added to 75 cm^2 cell culture flasks containing Sf9 cells (60-70% confluence), and the cells were incubated for four days at 27° C. Then 1.5 ml of the supernatant were taken and added to uninfected Sf9 cells in a 75 cm^2 flask. This was repeated five more times, using more cells and larger flasks after the third round of infections (150 cm^2 to which 3.0 ml of supernatant were added). The stock P8 was finally used for infection of the cells. For protein expression, 3 ml of the virus solution were used to infect 150 ml of cell media containing 2×10^6 cells/ml in a 500 ml Erlenmeyer flask, and they were incubated for 4 days at 27° C. with shaking (150 rpm). Then, cell suspensions were transferred to 50 ml falcon tubes and centrifuged at 15 min at 5000 g at 4° C. The supernatants were subjected to ultrafiltration using Amicon® Ultra-15, 10 kDa cut-off (Merck Millipore, MA, USA) at 5000 g for 15-30 min at 4° C. The concentrated protein was purified with HisPurTM Ni^2+-NTA spin columns (#: 88226, Thermo Fisher Scientific, MA, USA). The elution of the columns was performed as recommended in the instruction manual with adjusting the incubation time for protein binding to 1 h at 4° C. with an end-over-end mixer and an additional incubation step of 5 min with the elution buffer before eluting. Eluates were pooled and dialyzed (Membra-Cer, 14 kDa cut-off, 250 mm×44 mm×0.02 mm; Carl Roth, Germany) at 4° C. in 25 mM Tris, pH 7.4, with a volume adjusted to 40 times the volume of the elution fraction. […] The enzyme was aliquoted and stored at -80° C. until use.

Experiment [4] concerns the target T3, CD73 in human tonsillary tissue (Homo sapiens, UniProt P21589).
T3 construct: Palatine tonsils were obtained from adult patients with chronic tonsillitis; from tissue; host or cells: human palatine tonsil cryosections
T3 sequence (P21589 27-549): T1 sequence (P21589 27-549)
As to the kind of experiment: Human tonsillar CD73-mediated AMPase activity in tonsil cryosections. The conditions noted are these: 1, 10, and 100 nM; mean pixel intensity, FIG. 10. The class given is biochemical. On the procedure: Palatine tonsils were obtained from adult patients with chronic tonsillitis undergoing routine tonsillectory. The tonsils were washed with phisiological salt solution, embedded in the cyro-mold with Tissue-Tek O.C.T. compound (Sakura Finetek Europe B.V., the Nethelands), cut using a cryostat and stored at −80° C. Tonsil cryoselctions were preincubated for 30 min in Trizma maleate sucrose buffer supplemented with the alkaline phosphatase inhibitor levamisole and different concentrations of compound 9h. The enzymatic reaction was then performed for 45 min at 37° C. in a final volume of […] of TMSB-buffered substrate solution containing Pb (NO3)2, CaCl2, and tested CD73 inhibitor at the same concentration. The lead orthophosphate precipitated in the course of nucleotidase activity was visualized as a brown deposit by incubating sections in (NH3)2S for 30s, followed by three washed in Trizma-maleate buffer for 5 min each. Slides were mounted with Aquatex medium (Merck, Germany). Multiple images of adjacent tissue areas were captured using a slide scanner and further stitched to a larger overview. The images of control and treated tissues were captured at identical exposure times and other settings and further acquired in parallel. Nucleotidase activities were quantified as mean pixel intensities after grayscale conversion.

The target in a further experiment is T4, human P2Y14 receptor (Homo sapiens, UniProt Q15391).
T4 construct: expressed in transfected cells; host or cells: CHO cells
T4 sequence (Q15391 1-338): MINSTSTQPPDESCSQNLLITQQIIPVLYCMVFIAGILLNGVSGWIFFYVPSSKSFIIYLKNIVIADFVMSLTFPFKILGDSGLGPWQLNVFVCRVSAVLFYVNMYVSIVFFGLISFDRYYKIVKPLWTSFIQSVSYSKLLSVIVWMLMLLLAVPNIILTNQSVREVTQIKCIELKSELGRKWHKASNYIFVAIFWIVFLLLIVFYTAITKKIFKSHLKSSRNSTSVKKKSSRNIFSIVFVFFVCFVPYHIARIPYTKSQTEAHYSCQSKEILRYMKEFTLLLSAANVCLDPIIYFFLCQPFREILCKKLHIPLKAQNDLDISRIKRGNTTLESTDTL
As to the kind of experiment: Human P2Y14 receptor assay, inhibition of binding of a fluorescent antagonist, flow cytometry in CHO cells. The conditions noted are these: CHO cells expressing human P2Y14, read-out: hP2Y14 IC50 ± SEM. On the procedure:
Inhibition of binding of a high affinity fluorescent antagonist was measured using flow cytometry in a CHO cell line expressing the human P2Y14 receptor, as previously described (34).
On the technique in general: In flow cytometry, cells or beads pass a laser one at a time.

For another experiment, the target named is T5, human P2Y6 receptor (Homo sapiens, UniProt Q15077).
T5 construct: expressed in transfected cells; host or cells: 1321N1 human astrocytoma cells
T5 sequence (Q15077 whole entry): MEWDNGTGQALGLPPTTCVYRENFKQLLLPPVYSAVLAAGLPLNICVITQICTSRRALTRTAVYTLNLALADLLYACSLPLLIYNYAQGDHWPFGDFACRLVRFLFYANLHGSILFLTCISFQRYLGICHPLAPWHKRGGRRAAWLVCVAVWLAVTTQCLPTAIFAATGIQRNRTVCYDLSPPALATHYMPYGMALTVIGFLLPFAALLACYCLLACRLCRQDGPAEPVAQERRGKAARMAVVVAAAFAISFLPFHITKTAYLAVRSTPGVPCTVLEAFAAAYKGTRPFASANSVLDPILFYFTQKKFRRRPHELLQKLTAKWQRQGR
The experiment in a line: Human P2Y6 receptor assay, calcium mobilization in 1321N1 astrocytoma cells. The class given is cell-based. The following applies: 1321N1 cells expressing human P2Y6, read-out: hP2Y6 EC50 ± SEM. On the procedure:
Calcium mobilization induced by the nucleotide derivatives was measured in a human astrocytoma cell line (1321N1) expressing the human P2Y6 receptor, as previously described (33).

One may read the Ki as a dissociation constant, usually derived from enzyme kinetics or from competition with a known ligand. For orientation: IC50 means the midpoint of a concentration-inhibition curve. For orientation: EC50 means the concentration at which the effect is half-maximal. Take `Cn1c(=O)n([C@@H]2O[C@H](COP(=O)(O)CP(=O)(O)O)[C@@H](O)[C@H]2O)cc/c1=N/OCc1ccccc1` [Compound 9h, N^4-[O-(4-Benzyloxy)]-3-methyl-cytidine-5′-O-[(phosphonomethyl)phosphonic acid]]: the Ki in experiment [1] was found to be 7.96 nM; in experiment [2], 3.67 nM. In addition, in experiment [3], the “potency at human CD73 as compared to the rat enzyme” value is given as “somewhat less potent”. In addition, the “inhibition of the catalytic activity of CD73 in human tonsillary tissue” value in experiment [4] is “inhibited the catalytic activity of CD73 in a concentration-dependent manner”. Besides, the IC50 at human P2Y14 receptor is greater than 3 mM. For the same molecule, the EC50 at human P2Y6 receptor is greater than 3 mM.

The record behind these values is patent US20210169911A1, “PURINE AND PYRIMIDINE NUCLEOTIDES AS ECTO-5'-NUCLEOTIDASE INHIBITORS” (The United States of America,as represented by the …, priority 2018, published 2021).
